{
  "source": "patent US20250213519A1",
  "about": "“SYNERGY FOR INCREASING INSULIN SENSITIVITY” (Board of Supervisors of Louisiana State University and …, priority 2022, published 2025)",
  "key": {"human adipocytes [1]": {"tested_on": "human adipocytes", "test": "Lipolysis assay (agonist-stimulated glycerol release)", "type": "cell-based", "details": "agonist exposure 4.5 hours, white and NRBC-treated adipocytes", "protocol": "Thermogenesis is fueled by lipolysis, so we determined whether agonist-stimulated glycerol release, a measure of lipolysis, reflected the increases in receptors and lipolysis machinery in NRBC-treated adipocytes. First, adipocyte cultures from four donors who had obesity were treated with cell medium (untreated control cells) or NRBC for seven days. On the day of the acute lipolysis assay, cells were exposed to the individual receptor agonists for […] in buffer and glycerol released into the cell supernatant was measured. Non-hydrolyzable 8-cpt-cAMP, a potent activator of PKA signaling, was also evaluated in each experiment as a positive control since it bypasses individual receptors and measures the maximum capacity for lipolysis (36). The βARs, PTHR, MC1R, GPER and ADORA2B are all stimulatory G-protein (Gs) coupled receptors and signal through the CAMP-PKA signal transduction mechanism. NPR1 is not a Gs-coupled receptor and signals through an alternate mechanism of guanylate cyclase-cGMP-protein kinase G (PKG).\nCells were differentiated in 96-well plates and treated with cell medium (untreated) or NRBC for seven days. On the day of the lipolysis assay, cells were exposed for 4.5 hours to buffer (KRB with 1% BSA) or receptor agonists dissolved in buffer. Agonists were used at concentrations shown to give maximum responses and were: 8-Cpt-cAMP 200 μM non-hydrolyzable PKA activator of maximum stimulated lipolysis (cAMP) (36), atrial natriuretic peptide 0.1 μM for NPR1 and NPR3(37), parathyroid hormone (amino acids 1-34) 1 μM for PTHR(38), isoproterenol 1 μM all βARs and dobutamine 1 μM for β1AR (39), estradiol 1 μM for GPER (40), growth hormone 250 ng/ml for GHR (41), adrenocorticotropin hormone 1 μM for MC1R (42), bile acid chenodeoxycholic acid 30 μM for TGR5(43), adenosine 1 μM for ADORA1 and ADORA2B (44), and menthol 100 μM for TRPM8(45). Supernatants were removed for measurement of glycerol released using Glycerol Reagent A, and concentrations were determined using a standard curve. Data are from four or five experiments each with cells from different donors with BMI from 27 to 36."}, "human adipocytes [2]": {"tested_on": "human adipocytes", "test": "mRNA levels (qRT-PCR) in human adipocyte cultures treated for seven days", "type": "cell-based", "details": "for UCP1 gene expression, carotenoid combined with NR: 2 μM carotenoid + 8 μM NR, seven days, vs NR alone; for gene expression, β-carotene added to naringenin: 2 μM β-carotene + 8 μM naringenin extract, 7 days", "text": "In adipocytes, CDK5 inhibitors reduce adipogenesis and increase genes for energy expenditure by altering PPARγ target gene selection. We measured the expression of the PPARα/γ direct target gene UCP1 after treating human adipocyte cultures with CDK5-inhibiting flavonols combined with naringenin for seven days.\nHuman adipose-derived stem cells from overweight and obese female donors were purchased from LaCell, LLC (New Orleans, Louisiana) or isolated from lipoaspirate waste donated post-surgery from women with obesity using methods as previously described (31). Cells were seeded, maintained until two days after becoming confluent, and differentiated into adipocytes in the presence of rosiglitazone and isobutylmethylxanthine for five days as previously described (25). […], dissolved in DMSO at 1000×, started 5 days after the differentiation period and lasted for seven days in adipocyte maintenance medium with heat inactivated serum, before RNA and protein were isolated from adipocyte cultures.\nQuantitative reverse transcriptase and real-time PCR were conducted in one reaction with the gene-specific reverse PCR primer also priming the cDNA synthesis as previously described (25). Primer-probe sequences for UCP1, GLUT4, ATGL, adiponectin, PGC-1α and ribosomal RPL13A, used to adjust target gene values for total RNA in each sample, have been previously reported (25). […] Predesigned human primer and probe sets from Thermofisher Scientific are PM20D1 Hs00399438_m1; ANGPTL4 Hs00211522_m1; GDF11 Hs00195156_m1; S100B Hs00902901_m1."}, "human adipocytes [3]": {"tested_on": "human adipocytes", "test": "Protein levels by Western blotting in human adipocytes treated for seven days", "type": "cell-based", "details": "8 μM NR or 50 nM myricetin, 7 days", "text": "Since we saw an increase in SIRT3 mRNA and myricetin upregulates SIRT3 protein in adipocytes from mice, we analyzed levels of SIRT3 protein in human adipocytes treated for seven days with the same concentrations of compounds. Protein was isolated from adipocytes and analyzed on immunoblots probed with antibodies that specifically bind human SIRT3 or human β-actin. […] However, adding myr to NR+BC boosted SIRT3 protein by 37%.\nHuman adipose-derived stem cells from overweight and obese female donors were purchased from LaCell, LLC (New Orleans, Louisiana) or isolated from lipoaspirate waste donated post-surgery from women with obesity using methods as previously described (31). Cells were seeded, maintained until two days after becoming confluent, and differentiated into adipocytes in the presence of rosiglitazone and isobutylmethylxanthine for five days as previously described (25). Treatments of adipocytes with 8 μM NR and 2 μM carotenoid, dissolved in DMSO at 1000×, started 5 days after the differentiation period and lasted for seven days in adipocyte maintenance medium with heat inactivated serum, before RNA and protein were isolated from adipocyte cultures.\nWhole cell protein was isolated from differentiated cell cultures after treatment for seven days, lysed with RIPA buffer containing protease and phosphatase inhibitors, and pushed through a 20-gauge needle four times to disrupt organelles. Fifty micrograms of total cell protein were loaded per lane and resolved in 7.5% SDS-PAGE gels, transferred to nitrocellulose membranes, and probed overnight at 4° C. with specific primary antibodies. Anti-rabbit or -mouse secondary antibodies conjugated to horseradish peroxidase were used for detection of target proteins. Image J was used to quantify protein bands on Western blots. To adjust for variations in total protein loaded in each lane, β-actin was used."}, "human fat cells": {"tested_on": "human fat cells", "test": "Oxygen consumption rate of human fat cells", "type": "cell-based", "text": "Referring to FIG. 8, cells consume oxygen while metabolizing fat for thermogenic energy expenditure, and we directly measured oxygen consumption rate."}, "clinical": {"test": "clinical", "details": "human, in vivo, 150 mg"}, "[4]": {"test": "Case study of naringenin in an individual with obesity and diabetes", "type": "in vivo, human", "protocol": "Next, we gave 150 mg of naringenin extract in 500 mg of orange extract three times a day by capsule to a person who was obese and had type 2 diabetes that was only treated with diet. They took the capsule three times a day for 8 weeks without going on a diet or changing their exercise habits. […] For an obesity drug to get approval for weight loss it should cause a loss of 5%, so the results were close to what one can expect for a drug. Their insulin resistance went down by 20% and their metabolic rate went up by 3 percent.\nWe went back to the person whom we tested at 150 mg three times a day with naringenin, and tested them with 300 mg three times a day. They maintained the loss on the lower dose of naringenin and had also lost further weight, so they were below their natural weight set point."}, "human adipocytes [5]": {"tested_on": "human adipocytes", "test": "mRNA levels (qRT-PCR) in human adipocyte cultures treated for seven days", "type": "cell-based", "details": "for gene expression, carotenoid alone: 2 μM carotenoid individually, seven days"}, "human adipocytes [6]": {"tested_on": "human adipocytes", "test": "Protein levels by Western blotting in human adipocytes treated for seven days", "type": "cell-based"}, "CDK5": {"biological_target": "CDK5 (Homo sapiens, UniProt Q00535)", "sequence (Q00535 whole entry, species assumed)": "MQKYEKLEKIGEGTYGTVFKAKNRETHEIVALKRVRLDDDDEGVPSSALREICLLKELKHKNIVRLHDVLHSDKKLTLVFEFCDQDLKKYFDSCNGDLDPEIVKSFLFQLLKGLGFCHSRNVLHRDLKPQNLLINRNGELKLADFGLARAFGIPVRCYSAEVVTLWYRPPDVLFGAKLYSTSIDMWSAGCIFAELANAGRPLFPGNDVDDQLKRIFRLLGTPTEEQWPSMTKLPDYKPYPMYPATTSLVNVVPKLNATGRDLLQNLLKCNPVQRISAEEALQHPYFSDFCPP", "sequence (Q15078 whole entry partner, species assumed)": "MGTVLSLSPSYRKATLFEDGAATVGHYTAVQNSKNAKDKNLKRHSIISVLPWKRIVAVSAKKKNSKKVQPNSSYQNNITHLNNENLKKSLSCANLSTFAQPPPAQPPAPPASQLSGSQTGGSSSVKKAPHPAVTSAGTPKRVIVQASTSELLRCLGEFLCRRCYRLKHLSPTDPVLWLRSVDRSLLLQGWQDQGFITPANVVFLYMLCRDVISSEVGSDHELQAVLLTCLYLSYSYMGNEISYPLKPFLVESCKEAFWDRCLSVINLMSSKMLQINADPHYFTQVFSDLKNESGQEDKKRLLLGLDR", "details": "cited from earlier work"}, "[7]": {"details": "150 mg three times a day, 8 weeks"}, "[8]": {"details": "150 mg three times a day, eight weeks"}},
  "note": "“Also recorded” adds a separate entry of the source.",
  "data": [
    {"compound": "adrenocorticotropin hormone (SYSMEHFRWGKPVGKKRRPVKVYPNGAEDESAEAFPLEF; Corticotropin; UniProt P01189 138-176, looked up) [ACTH, MC1R agonist used in lipolysis assay]", "values": [
      {"measurement": "lipolysis stimulated by the receptor agonist itself", "setting": "human adipocytes [1]", "result": "no effect"}
    ]},
    {"compound": "O=C1C[C@@H](c2ccc(O)cc2)Oc2cc(O)cc(O)c21", "note": "[naringenin]", "values": [
      {"measurement": "UCP1 and GLUT4 mRNA, naringenin concentration curve", "setting": "human adipocytes [2]; naringenin 0.03 μM to 8 μM with constant 3 μM myricetin", "result": "increased gene expression in a concentration-dependent manner"},
      {"measurement": "adiponectin production", "setting": "human adipocytes [2]; naringenin alone (FIG. 9)", "result": "increased production of a secreted hormone (adiponectin)"},
      {"measurement": "SIRT3 protein levels, single agent", "setting": "human adipocytes [3]", "result": "upregulate SIRT3 protein levels"},
      {"measurement": "basal and maximal energy expenditure (oxygen consumption rate)", "setting": "human fat cells", "result": "strong inducer of basal and maximal energy expenditure"},
      {"measurement": "Cmax", "setting": "clinical", "result": "~16", "unit": "µM"},
      {"measurement": "half-life", "setting": "clinical", "result": 3, "unit": "h"},
      {"measurement": "body weight loss", "setting": "[4]; [7]", "result": 2.3, "unit": "%"},
      {"measurement": "decrease in insulin resistance", "setting": "[4]; [7]", "result": 20, "unit": "%"},
      {"measurement": "increase in metabolic rate", "setting": "[4]; [7]", "result": 3, "unit": "%"},
      {"measurement": "increase in energy expenditure", "setting": "[4]; [8]", "result": 3.5, "unit": "%"},
      {"measurement": "reduction of fasting insulin concentrations", "setting": "[4]; [8]", "result": 20, "unit": "%"},
      {"measurement": "body weight at higher dose", "setting": "[4]; 300 mg three times a day, same person", "result": "only maintained their weight loss without adding further weight loss"},
      {"measurement": "diabetes status", "setting": "[4]; after weight loss following the 150 mg dose", "result": "resolved their diabetes"},
      {"measurement": "UCP-1 expression", "setting": "human adipocytes [5]; human fat cells in culture and adult adipose specimens, naringenin alone", "result": "caused an increase in Uncoupling Protein-1 (UCP-1)"},
      {"measurement": "PGC-1α protein levels vs untreated control", "setting": "human adipocytes [6]; 8 μM NR, 2 μM BC, 7 days", "result": "approximately two-fold"},
      {"measurement": "protein levels of PPARα, PPARγ, PGC-1α and NAMPT", "setting": "human adipocytes [6]; NR alone", "result": "did not upregulate protein levels"},
      {"measurement": "UCP-1 and adiponectin protein levels", "setting": "human adipocytes [6]; naringenin 8 μM over 7 days (FIG. 10)", "result": "protein levels for UCP-1 and adiponectin increased"}
    ]},
    {"compound": "C[C@]12CC[C@@H]3c4ccc(O)cc4CC[C@H]3[C@@H]1CC[C@@H]2O", "note": "[estrogen, estradiol]", "values": [
      {"measurement": "lipolysis stimulated by the receptor agonist itself", "setting": "human adipocytes [1]", "result": "small reduction in lipolysis; also recorded: neither growth hormone nor estrogen stimulated lipolysis"}
    ]},
    {"compound": "CC1=C[C@H](O)CC(C)(C)[C@H]1/C=C/C(C)=C/C=C/C(C)=C/C=C/C=C(C)/C=C/C=C(C)/C=C/C1=C(C)C[C@@H](O)CC1(C)C", "note": "[lutein]", "values": [
      {"measurement": "UCP1 gene expression, carotenoid combined with NR", "setting": "human adipocytes [2]", "result": "synergistic; also recorded: synergistically enhanced levels of UCP1"},
      {"measurement": "gene expression, carotenoid alone", "setting": "human adipocytes [5]", "result": "no effect on gene expression"}
    ]},
    {"compound": "Nc1ncnc2c1ncn2[C@@H]1O[C@H](CO)[C@@H](O)[C@H]1O", "note": "[adenosine]", "values": [
      {"measurement": "lipolysis stimulated by the receptor agonist itself", "setting": "human adipocytes [1]", "result": "no effect"}
    ]},
    {"compound": "growth hormone: human pituitary growth hormone, GHR agonist in lipolysis assay", "values": [
      {"measurement": "lipolysis stimulated by the receptor agonist itself", "setting": "human adipocytes [1]", "result": "neither growth hormone nor estrogen stimulated lipolysis"}
    ]},
    {"compound": "parathyroid hormone (1-34) [PTH]", "values": [
      {"measurement": "lipolysis stimulated by the receptor agonist itself", "setting": "human adipocytes [1]", "result": "highest in control white adipocytes"}
    ]},
    {"compound": "O=c1c(O)c(-c2ccc(O)cc2)oc2cc(O)cc(O)c12", "note": "[kaempferol, reference compound]", "values": [
      {"measurement": "CDK5 kinase activity inhibition EC50 (in words)", "setting": "CDK5", "result": "low micromolar range"},
      {"measurement": "EC50", "setting": "CDK5; read-out: CDK5 inhibition EC50", "result": 66, "unit": "µM"}
    ]},
    {"compound": "CC(C)=CCC/C(C)=C/C=C/C(C)=C/C=C/C(C)=C/C=C/C=C(C)/C=C/C=C(C)/C=C/C=C(\\C)CCC=C(C)C", "note": "[lycopene]", "values": [
      {"measurement": "UCP1 gene expression, carotenoid combined with NR", "setting": "human adipocytes [2]", "result": "did not alter NR-stimulated UCP1 levels"},
      {"measurement": "UCP1 gene expression, carotenoid combined with NR", "setting": "human adipocytes [2]; listed as Lycopene", "result": "did not alter the NR response"},
      {"measurement": "gene expression, carotenoid alone", "setting": "human adipocytes [5]", "result": "no effect on gene expression"}
    ]},
    {"compound": "CC1=C(/C=C/C(C)=C/C=C/C(C)=C/C=C/C=C(C)/C=C/C=C(C)/C=C/C2=C(C)CCCC2(C)C)C(C)(C)CCC1", "note": "[β-carotene, β-Carotene]", "values": [
      {"measurement": "SIRT3 mRNA expression", "setting": "human adipocytes [2]; 2 μM BC added to NR+myr, vs NR or NR+myricetin", "result": "significantly increased SIRT3 expression"},
      {"measurement": "UCP1 gene expression, carotenoid combined with NR", "setting": "human adipocytes [2]; listed as BC", "result": "synergistic; also recorded: synergistically enhanced levels of UCP1"},
      {"measurement": "gene expression, β-carotene added to naringenin", "setting": "human adipocytes [2]", "result": "synergistically enhances the effects of naringenin on gene expression; also recorded: synergistically induces gene expression"},
      {"measurement": "gene expression, β-carotene added to naringenin", "setting": "human adipocytes [2]; listed as beta-carotene", "result": "synergistically increases expression of genes for thermogenic energy expenditure and insulin sensitivity"},
      {"measurement": "gene expression, carotenoid alone", "setting": "human adipocytes [5]", "result": "no effect on gene expression"}
    ]}
  ]
}
